Columns and labels:
[1] = biological target: cytochrome P450 2C19 (Homo sapiens (Human), UniProt P33261); test: Cytochrome P450 2C19 inhibition; format: in vitro ADME; details: human liver microsomes, Mephenytoin hydroxylation; read-out: IC50 CYP2C19 inhibition
Experimental: Assay for Determination of Cytochrome P450 2C19 Inhibition
All assays are carried out on a robotic system in 96 well plates. The final incubation volume contains TRIS buffer (0.1 M), MgCl2 (5 mM), human liver microsomes (0.5 mg/ml), (S)-Mephenytoin (70 μM) and the test compound at five different concentrations or no compound (high control) in duplicate (e.g. highest concentration 10-50 μM with subsequent serial 1:4 dilutions). Following a short preincubation period, reactions are started with the cofactor (NADPH, 1 mM) and stopped by cooling the incubation down to 8° C. and subsequently by addition of one volume of acetonitrile. An internal standard solution—usually the stable isotope of the formed metabolite—is added after quenching of incubations. Peak area analyte (=metabolite formed) and internal standard is determined by LC-MS/MS. The resulting peak area ratio analyte to internal standard in these incubations is compared to a control activity containing no test compound.
If the inhibition of the reaction is already >50% at the lowest concentration of the test compound, the IC50 is assigned “<lowest concentration tested” (usually <0.4 μM). If the inhibition of the reaction is still <50% at the highest concentration of the test compound, the IC50 is assigned “>highest concentration tested” (usually >50 μM).

[2] = biological target: hERG (human ether-a-go-go-related gene) potassium channel (Homo sapiens (Human), UniProt Q12809); test: hERG inhibition patch clamp assay; format: cell-based
Text: (§1) Calculations: Fold induction=(Enzyme mRNA Compound)/(Enzyme mRNA Solvent Control) Inducer Potency=(Fold Compound)/(Fold Rifampicin)*100 Assay for Determination of hERG Inhibition
(§2) The inhibition of the hERG (human ether-a-go-go-related gene) potassium channel can be determined as described in Rast, G., & Guth, B. D., Journal of Pharmacological and Toxicological Methods (2014), http://dx.doi.org/10.1016/j.vasen.2014.08.001.

[3] = biological target: hERG potassium channel (Homo sapiens (Human), UniProt Q12809); test: hERG inhibition patch clamp assay; format: cell-based; details: human, @ 10 μM
Text: as §1, §2

Chain of hERG (human ether-a-go-go-related gene) potassium channel (Q12809 whole entry): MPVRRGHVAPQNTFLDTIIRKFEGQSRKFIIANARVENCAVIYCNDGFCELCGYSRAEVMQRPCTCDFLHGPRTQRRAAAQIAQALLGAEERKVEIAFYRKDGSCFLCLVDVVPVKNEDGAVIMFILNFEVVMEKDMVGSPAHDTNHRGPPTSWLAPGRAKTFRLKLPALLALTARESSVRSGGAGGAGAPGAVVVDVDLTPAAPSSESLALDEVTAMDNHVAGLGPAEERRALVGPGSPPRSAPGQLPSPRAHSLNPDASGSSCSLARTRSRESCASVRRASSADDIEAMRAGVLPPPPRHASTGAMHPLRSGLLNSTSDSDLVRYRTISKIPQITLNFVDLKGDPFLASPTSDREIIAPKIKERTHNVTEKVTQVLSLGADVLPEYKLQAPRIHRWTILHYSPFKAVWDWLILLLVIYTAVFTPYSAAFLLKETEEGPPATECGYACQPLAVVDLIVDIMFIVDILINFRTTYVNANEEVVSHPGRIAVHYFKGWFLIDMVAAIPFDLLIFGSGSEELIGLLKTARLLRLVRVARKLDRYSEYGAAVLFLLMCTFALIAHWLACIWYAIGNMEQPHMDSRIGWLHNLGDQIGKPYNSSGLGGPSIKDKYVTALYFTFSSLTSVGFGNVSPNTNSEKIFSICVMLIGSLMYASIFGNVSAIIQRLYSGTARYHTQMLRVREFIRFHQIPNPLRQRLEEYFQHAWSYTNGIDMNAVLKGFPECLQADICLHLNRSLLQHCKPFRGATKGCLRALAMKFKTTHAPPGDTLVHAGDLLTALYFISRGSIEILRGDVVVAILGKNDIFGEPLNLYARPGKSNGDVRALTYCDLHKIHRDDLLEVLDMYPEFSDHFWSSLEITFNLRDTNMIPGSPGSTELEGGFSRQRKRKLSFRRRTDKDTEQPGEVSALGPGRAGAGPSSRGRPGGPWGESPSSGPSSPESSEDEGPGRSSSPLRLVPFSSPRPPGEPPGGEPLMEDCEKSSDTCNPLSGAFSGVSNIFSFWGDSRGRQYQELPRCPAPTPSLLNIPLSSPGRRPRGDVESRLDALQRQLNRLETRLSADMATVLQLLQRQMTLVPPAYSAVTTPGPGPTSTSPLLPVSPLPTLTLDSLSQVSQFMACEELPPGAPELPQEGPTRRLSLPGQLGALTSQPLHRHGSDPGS
Chain of cytochrome P450 2C19 (P33261 whole entry): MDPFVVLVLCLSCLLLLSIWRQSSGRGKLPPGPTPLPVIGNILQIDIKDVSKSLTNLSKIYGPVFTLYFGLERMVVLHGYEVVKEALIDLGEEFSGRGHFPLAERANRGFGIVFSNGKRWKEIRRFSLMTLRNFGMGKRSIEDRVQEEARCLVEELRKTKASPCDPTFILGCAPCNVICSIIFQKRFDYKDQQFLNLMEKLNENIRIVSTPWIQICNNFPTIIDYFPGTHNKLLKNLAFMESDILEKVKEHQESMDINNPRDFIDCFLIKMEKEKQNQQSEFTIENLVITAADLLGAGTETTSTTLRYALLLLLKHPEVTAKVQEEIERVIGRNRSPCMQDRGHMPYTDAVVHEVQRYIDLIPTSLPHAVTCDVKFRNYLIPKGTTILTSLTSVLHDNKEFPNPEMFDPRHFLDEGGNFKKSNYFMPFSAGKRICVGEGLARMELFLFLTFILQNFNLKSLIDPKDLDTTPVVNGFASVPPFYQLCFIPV
Chain of hERG potassium channel (Q12809 whole entry): as the sequence (Q12809 whole entry) above

IC50 [1] | Compound | IC50 [2] | hERG inhibition ([2]; @ 10 μM) | inhibition at 10 µM [3]
> 50 µM | CNC(=O)c1cc(C#N)ccc1[C@@H]1C(C(C)=O)=C(C)N(c2cccc(C(F)(F)F)c2)C(=O)N1C [Example 13.1] | > 30 µM | (7% @ 10 μM) | 
> 50 µM | CC(=O)C1=C(C)N(c2cccc(C(F)(F)F)c2)C(=O)N(C)[C@@H]1c1ccc(C#N)cc1-c1ccc(=O)n(C)c1 [Example 16, 4-[(R)-5-Acetyl-3,6-dimethyl-2-oxo-1-(3-trifluoromethyl-phenyl)-1,2,3,4-tetrahydro-pyrimidin-4-yl]-3-(1-methyl-6-oxo-1,6-dihydro-pyridin-3-yl)-benzonitrile] | > 30 µM |  | 8%
